Usually IC50 stands for the midpoint of a concentration-inhibition curve.

Consider twelve compounds from publication PMC7356589, “Hybrid Gold(I) NHC-Artemether Complexes to Target Falciparum Malaria Parasites” (Molecules, 2020).

Data set [1] concerns P. falciparum F32-ART and F32-TEM strains. Nature of the data set: Recrudescence assay, comparison of F32-TEM and F32-ART (cross-resistance with artemisinin). In kind it is cell-based, Plasmodium falciparum. Particulars: for Mean ± SEM Difference of Recrudescence Days between F32-TEM and F32-ART: 48 h exposure; for Cross-resistance with artemisinin (result in words): recrudescence assay, F32-ART vs F32-TEM. The method, then:
Three hybrid molecules with the best selectivity indexes in each series, i.e., Aubis(3-Me) (14), Aubis(4-Me) (19) and Aubis(5-Me) (23), were evaluated in vitro for their efficacy in a context of resistance to artemisinins. For that, the comparison of the recovery capacity between the strain F32-ART, artemisinin-resistant, and its twin artemisinin-sensitive F32-TEM was evaluated after 48 h-treatment with the molecule to be tested via the recrudescence assay. When ring-stage resistant parasites are exposed to artemisinin, most of them die, but a small sub-set of parasites is able to escape the treatment by a cell cycle arrest, called quiescence mechanism. This phenomenon is characterized by a halt of DNA synthesis, which explains the very low IC50 values obtained with all artemisinins even for the artemisinin-resistant strain F32-ART [9, 15, 30]. Therefore, the standard in vitro chemosensitivity assay, based on the measurement of DNA levels to estimate the inhibition of the parasite proliferation, is irrelevant to study the resistance to artemisinins and evaluate possible cross-resistances.
(§1) P. falciparum strains F32-ART and F32-TEM, synchronized at ring stage parasites at 3% parasitemia and 2% hematocrit have undergone a 48 h-treatment with the drugs to be tested. The parasites were then washed with RPMI-1640 medium and re-cultivated in drug-free culture conditions with 10% human serum. The parasitemia was then monitored daily to determine the time required for each parasite culture to recover the initial parasitemia of 3%. If no parasites were seen up to 30 days, the parasites were considered as “not recrudescent” [9, 15]. The drug doses were chosen in order to discriminate the phenotype response between the artemisinin-resistant and the -sensitive strains. A range from 1-fold to >100-fold the antiplasmodial IC50 value previously found has been tested to determine the most appropriate drug dose to use in this recrudescence assay.

The subject of data set [2] is P. falciparum strain F32-TEM (F32-Tanzania). Nature of the data set: In vitro antiplasmodial activity (SYBR Green fluorescence and [3H] hypoxanthine assays). In kind it is cell-based, Plasmodium falciparum. As to the method: In vitro antiplasmodial activities of the synthesized hybrid molecules were evaluated against the P. falciparum strain F32-TEM (corresponding to the parental strain F32-Tanzania). Each molecule was tested at least in three independent experiments (except Aubis(5-Bn), tested twice) by a SYBR Green Fluorescence assay but also at least once with the standard chemosensitivity assay recommended by the WHO and based on the incorporation of [^3H] hypoxanthine.
For the SYBR Green Fluorescence assay, ring stage parasites were treated with the drugs for 48 h. Then, the pellets were washed twice with PBS and frozen at −20 °C. Thawed plates were incubated for 2 h at room temperature with the SYBR Green (Thermo-Fisher, Illkirch, France) lysis buffer (20 mm Tris base pH 7.5, 5 mm EDTA, 0.008% w/v saponin, 0.08% w/v Triton X-100). The plates were then read using a fluorescence plate reader (FLx800, BioTek, Illkirch, France) at an excitation wavelength of 485 nm and 535 nm for the emission wavelength. The IC50 values (concentration inhibiting 50% of the parasite’s growth) were determined using GraphPad Prism software 7 (GraphPad Software, San Diego, CA, USA).
For [^3H] hypoxanthine assay, ring stage parasites were incubated with the drug dilutions for 24 h, then, [^3H] hypoxanthine (50 μL/0.25 μCi; Perkin-Elmer, Courtaboeuf, France) was added for another 24 h period. After that, plates were frozen at −20 °C. The next step is to thaw the plates and to collect the nucleic acids. Tritium incorporation was then determined thanks to a β-counter (Perkin-Elmer, Courtaboeuf, France).
The antiplasmodial activities reported in Table 1 correspond thus to the mean of IC50 values from at least 4 independent experiments acquired by the two methods, SYBR Green and radioactivity.

Data set [3] concerns Vero cell line. Nature of the data set: Cytotoxicity on Vero cells (MTT). In kind it is cell-based, monkey. As to conditions: for IC50: Vero cells, 48 h, MTT, read-out: Cytotoxicity on Vero Cells IC50 ± SEM. The method, then: The cells were cultured in MEM medium (Dutscher, Brumath, France) supplemented with 10% fetal bovine serum (Dutscher), 0.7 mM glutamine and 100 μg/mL gentamicin. The cells were seeded at 10^4 cells per well in a 96-well plates and incubated during 24 h. Then, cells were incubated for additional 48 h with the drugs. […] Subsequently, DMSO was added to the wells containing the cells and MTT to dissolve the formed crystals. The plates were then read to determine the absorbance at wavelength of 540 nm (µQuant, BioTek, Illkirch, France). Cell proliferation was calculated from at least three independent experiments using GraphPad Prism software 7 (GraphPad Software, San Diego, CA, USA). The cytotoxic/antiplasmodial activity ratio corresponds to the selectivity index.

Data set [4] has as its system P. falciparum F32-ART (artemisinin-resistant). Nature of the data set: Recrudescence assay after 48 h drug exposure, F32-ART. In kind it is cell-based, Plasmodium falciparum. As to conditions: 48 h exposure. The method, then:
(§2) The Plasmodium falciparum F32-ART and F32-TEM parasite lines, resistant and sensitive to artemisinins respectively, were cultured in vitro in type O human erythrocytes (Etablissement Français du sang (EFS), Toulouse, France), diluted to 2% hematocrit, in RPMI-1640 medium (GIBCO, Illkirch, France) and supplemented with 5% Human Serum AB (EFS, Toulouse, France) at 37 °C and 5% CO2 [33]. Every other day and before each experiment, P. falciparum F32-ART and F32-TEM parasites were synchronized at ring stage using 5% D-sorbitol solution [34].
as §1

For data set [5], the system named is P. falciparum F32-TEM (artemisinin-sensitive). Nature of the data set: Recrudescence assay after 48 h drug exposure, F32-TEM. It is filed as cell-based, Plasmodium falciparum. As to conditions: 48 h exposure. As to the method: as §2, §1
Setting [6] is: strain F32-Tanzania (F32-TEM), mean of at least 4 experiments, SYBR Green and radioactivity assays, 48 h, read-out: Antiplasmodial Activity on P. falciparum IC50 ± SEM.

The structures appear in SMILES notation. Where two headings read alike, the source gives them in different places.

Take `C[C@@H]1CCC2[C@@H](C)[C@@H](OCCCCn3cc[n+](C)[c]3[Au-][c]3n(CCCCO[C@H]4O[C@@H]5O[C@@]6(C)CCC7[C@H](C)CCC([C@H]4C)[C@]75OO6)cc[n+]3C)O[C@@H]3O[C@@]4(C)CCC1[C@@]23OO4.[Cl-]` (stereo partly shown) [Aubis(4-Me)]: the results for the “Mean ± SEM Difference of Recrudescence Days between F32-TEM and F32-ART” value in data set [1] (dose 100 nM), in data set [1] (dose 500 nM) and in data set [1] (dose 1 µM) were 1 days, more than 17.5 ± 1.5 days and 14 days, respectively. In data set [1], the “Cross-resistance with artemisinin (result in words)” value is listed as “cross-resistance”. Moreover, the IC50 in data set [2] (setting [6]) amounted to 13 ± 3 nM; in data set [3], 800 nM. Further, the “Median (range) Recrudescence Days, F32-ART” value in data set [4] (dose 100 nM) is 5 days; in data set [4] (dose 500 nM), 12.5 (11–14) days; in data set [4] (dose 1 µM) it was 16 days. Further, the “Median (range) Recrudescence Days, F32-TEM” value in data set [5] (dose 100 nM) is 6 days; in data set [5] (dose 500 nM), more than 30 days; in data set [5] (dose 1 µM), 30 days.

As to `C[C@@H]1CCC2[C@@H](C)[C@@H](OCCCCn3cc[n+](Cc4ccccc4)[c]3[Au-][c]3n(CCCCO[C@H]4O[C@@H]5O[C@@]6(C)CCC7[C@H](C)CCC([C@H]4C)[C@]75OO6)cc[n+]3Cc3ccccc3)O[C@@H]3O[C@@]4(C)CCC1[C@@]23OO4.[Cl-]` (stereo partly shown) [Aubis(4-Bn)], the results for the IC50 in data set [2] (setting [6]) and in data set [3] were 40 ± 21 nM and 700 nM, respectively.

Take `C[C@@H]1CCC2[C@@H](C)[C@@H](OCCCCCn3cc[n+](C)[c]3[Au-][c]3n(CCCCCO[C@H]4O[C@@H]5O[C@@]6(C)CCC7[C@H](C)CCC([C@H]4C)[C@]75OO6)cc[n+]3C)O[C@@H]3O[C@@]4(C)CCC1[C@@]23OO4.[Cl-]` (stereo partly shown) [Aubis(5-Me)]: the “Mean ± SEM Difference of Recrudescence Days between F32-TEM and F32-ART” value is reported as 9 days in data set [1] (dose 100 nM), more than 16 days in data set [1] (dose 500 nM) and 21 days in data set [1] (dose 1 µM). Further, the “Cross-resistance with artemisinin (result in words)” value in data set [1] is given as “cross-resistance”. Besides, the values for the IC50 in data set [2] (setting [6]) and in data set [3] were 9 ± 0.9 nM and 1000 nM, respectively. Further, the “Median (range) Recrudescence Days, F32-ART” value in data set [4] (dose 100 nM) is recorded as 6 days; in data set [4] (dose 500 nM), 9.5 (8–11) days; in data set [4] (dose 1 µM) it was 9 days. The figures for the “Median (range) Recrudescence Days, F32-TEM” value in data set [5] (dose 100 nM), in data set [5] (dose 500 nM) and in data set [5] (dose 1 µM) were 15 days, >25.5 (21–>30) days and 30 days, respectively.

`C[C@@H]1CCC2[C@@H](C)[C@@H](OCCCn3cc[n+](Cc4ccccc4)[c]3[Au-][c]3n(CCCO[C@H]4O[C@@H]5O[C@@]6(C)CCC7[C@H](C)CCC([C@H]4C)[C@]75OO6)cc[n+]3Cc3ccccc3)O[C@@H]3O[C@@]4(C)CCC1[C@@]23OO4.[Cl-]` (stereo partly shown) [Aubis(3-Bn)]: the figures for the IC50 in data set [2] (setting [6]) and in data set [3] were 22 ± 3 nM and 300 nM, respectively.

For `Cc1cc(C)c(-[n+]2ccn(CCCCO[C@H]3O[C@@H]4O[C@@]5(C)CCC6[C@H](C)CCC([C@H]3C)[C@]64OO5)[c]2[Au-][c]2n(CCCCO[C@H]3O[C@@H]4O[C@@]5(C)CCC6[C@H](C)CCC([C@H]3C)[C@]64OO5)cc[n+]2-c2c(C)cc(C)cc2C)c(C)c1.[Cl-]` (stereo partly shown) [Aubis(4-Mes)], the values for the IC50 in data set [2] (setting [6]) and in data set [3] were 38 ± 3 nM and 700 nM, respectively.

For the compound `C[C@@H]1CCC2[C@@H](C)[C@@H](OCCCCCn3cc[n+](-c4ccc5ccccc5n4)[c]3[Au-][c]3n(CCCCCO[C@H]4O[C@@H]5O[C@@]6(C)CCC7[C@H](C)CCC([C@H]4C)[C@]75OO6)cc[n+]3-c3ccc4ccccc4n3)O[C@@H]3O[C@@]4(C)CCC1[C@@]23OO4.[Cl-]` (stereo partly shown) [Aubis(5-Quin)], the half-maximal inhibitory concentration (IC50) in data set [2] (setting [6]) was 38 ± 9 nM; in data set [3] it was 2000 nM.

Consider `CO[C@H]1O[C@@H]2O[C@@]3(C)CC[C@H]4[C@H](C)CC[C@@H]([C@H]1C)[C@@]24OO3` [Artemether], for which, in data set [2] (Plasmodium falciparum, F32, 48 h, read-out: Antiplasmodial Activity on P. falciparum IC50 ± SEM, strain F32-Tanzania (F32-TEM), mean of at least 4 experiments, SYBR Green and radioactivity assays), the IC50 stood at 6.1 ± 1 nM. In data set [3] (cytotoxic/antiplasmodial activity ratio), the “Selectivity Index Vero Cells/P. falciparum” value was 35 000.

Regarding `C[C@@H]1CCC2[C@@H](C)[C@@H](OCCCCCn3cc[n+](Cc4ccccc4)[c]3[Au-][c]3n(CCCCCO[C@H]4O[C@@H]5O[C@@]6(C)CCC7[C@H](C)CCC([C@H]4C)[C@]75OO6)cc[n+]3Cc3ccccc3)O[C@@H]3O[C@@]4(C)CCC1[C@@]23OO4.[Cl-]` (stereo partly shown) [Aubis(5-Bn)], the figures for the IC50 in data set [2] (setting [6]) and in data set [3] were 72 ± 14 nM and 600 nM, respectively.

As for `C[C@@H]1CCC2[C@@H](C)[C@@H](OCCCn3cc[n+](-c4ccc5ccccc5n4)[c]3[Au-][c]3n(CCCO[C@H]4O[C@@H]5O[C@@]6(C)CCC7[C@H](C)CCC([C@H]4C)[C@]75OO6)cc[n+]3-c3ccc4ccccc4n3)O[C@@H]3O[C@@]4(C)CCC1[C@@]23OO4.[Cl-]` (stereo partly shown) [Aubis(3-Quin)], the IC50 in data set [2] (setting [6]) amounted to 23 ± 8 nM; in data set [3] it was 1200 nM.

Regarding `Cc1cc(C)c(-[n+]2ccn(CCCO[C@H]3O[C@@H]4O[C@@]5(C)CCC6[C@H](C)CCC([C@H]3C)[C@]64OO5)[c]2[Au-][c]2n(CCCO[C@H]3O[C@@H]4O[C@@]5(C)CCC6[C@H](C)CCC([C@H]3C)[C@]64OO5)cc[n+]2-c2c(C)cc(C)cc2C)c(C)c1.[Cl-]` (stereo partly shown) [Aubis(3-Mes)], the IC50 came out at 61 ± 37 nM in data set [2] (setting [6]) and 500 nM in data set [3].

For `C[C@@H]1CCC2[C@@H](C)[C@@H](OCCCCn3cc[n+](C)c3)O[C@@H]3O[C@@]4(C)CCC1[C@@]23OO4` (stereo partly drawn) [L4-Me, 3′-methyl-1′-[10β-(21-butoxy)-dihydroartemisinin]1H-imidazol-3-ium bromide], the IC50 in data set [2] (Plasmodium falciparum, F32, 48 h, strain F32-Tanzania (F32-TEM), mean of at least 4 experiments, SYBR Green and radioactivity assays, read-out: Antiplasmodial Activity on P. falciparum IC50 ± SEM) came to 840 ± 64 nM.

For `CC(C)[n+]1ccn(CCCO[C@H]2O[C@@H]3O[C@@]4(C)CCC5[C@H](C)CCC([C@H]2C)[C@]53OO4)[c]1[Au-][c]1n(CCCO[C@H]2O[C@@H]3O[C@@]4(C)CCC5[C@H](C)CCC([C@H]2C)[C@]53OO4)cc[n+]1C(C)C.[Cl-]` (stereo partly shown) [Aubis(3-iPr)], the figures for the IC50 in data set [2] (setting [6]) and in data set [3] were 13 ± 5 nM and 700 nM, respectively.
